Test system: AKT and STAT3 phosphorylation in sphere cultured SKOV3ip1 cells
Assay: immunostaining of AKT and STAT3 phosphorylation, sphere culture
Format: cell-based
Description: In order to identify whether a change in signaling pathways associated with cell survival appears or not according to 2D monolayer culture (2D MC) and 3D sphere culture (3D SC), immunostaining was implemented. More particularly, after culturing SKOV3ip1 cells (1×10^6) by 2D monolayer culture or 3D sphere culture described in section 1.1, expression of cell-signaling molecules including AKT, STAT3, p42/44 ERK and p38 MAPK was detected and activation states in the monolayer cultured cells and the sphere cultured cells were compared. The monolayer cultured or sphere cultured SKOV3ip1 cells were harvested and washed once with ice-cold 1× phosphate buffered saline, followed by dissolving the same in 100 μl ice-cold RIPA buffer (20 mM Tris-Cl, pH 8.0, 125 mM NaCl, […], 1 mM ethylene diamine tetraacetic acid, 1% Triton X-100, 0.5% sodium deoxycholate, 0.1% sodium dodecyl sulfate, 1× complete protease inhibitor cocktail (Roche, Mannheim, Germany)) on ice. After assessing the protein concentration using a Bradford Protein assay kit (Biorad, CA, USA), the same amount of proteins (30 μg) was separated by SDS-PAGE and moved to a nitrocellulose membrane, followed by immunostaining the same using a horseradish peroxide conjugated second antibody and a specific antibody. An immune activation band was detected with SuperSignal West Pico Chemiluminescent Substrate (Thermo, IL, USA) using a Fusion Solo chemiluminescence analyzer (Vilber Rourmat Marne la Vallee, France). Antibodies to STAT3 (H-190), STAT3 (B-7) phosphorylated at Tyr705 and actin (C-2) were purchased from Santa Cruz Biotechnology. Rabbit monoclonal antibodies on AKT, AKT (D9E) phosphorylated at Ser473, FGFR1 phosphorylated at Tyr 653/654, p42/44 MAPK, phosphorylated p42/44 MAPK, p38 MAPK and p38 MAPK phosphorylated at Tyr 180/182 were purchased from Cell Signaling Technology (MA, USA). Further, HRP-conjugated goat anti-mouse and rabbit secondary antibodies were purchased from Jackson Laboratories, while BGJ398 used in the experiment (against FGFR1/2/3) was purchased from Selleckchem (USA).
Under this ground, in order to determine whether BGJ398 can vary the state of AKT and STAT3 in the sphere cultured SKOV3ip1 cells, the monolayer cultured (MC) or sphere cultured (SC) SKOV3ip1 cells were subjected to treatment using 5 μM BGJ398, followed by examining the degree of phosphorylation due to the above treatment.
Further, the sphere cultured SKOV3ip1 cells were treated with 5 μM BGJ398 (BGJ), 3 μM TAE648 (TAE) and 5 μM imatinib (IMT), respectively. After 72 hours, a cell lysate was obtained and subjected to immunostaining, followed by analyzing active cellular expression of AKT and STAT3 with the antibody for the same. Further, a phosphorylation level of FGFR1 was used as a positive control group relative to BGJ treatment groups while actin was used as a loading control group. The immunostaining assay procedure was implemented in the same manner as in Example 1.
Since the cell survival of the sphere cultured SKOV3ip1 cells is inhibited by BGJ398 treatment, whether such cell survival inhibition is intermediated through JAK/STAT3 signaling pathway was further examined. […]

In the case of `CCN1CCN(c2ccc(Nc3cc(N(C)C(=O)Nc4c(Cl)c(OC)cc(OC)c4Cl)ncn3)cc2)CC1` [BGJ398, 3-(2,6-dichloro-3,5-dimethoxyphenyl)-1-[6-[4-(4-ethylpiperazin-1yl)anilino]pyrimidin-4-yl]-1-methylurea], the “AKT and STAT3 phosphorylation” value (sphere cultured SKOV3ip1, 5 μM BGJ398 (FIG. 6), AG490, 72 hours (FIG. 7B)) is reported as “suppressed again” and the “phosphorylated AKT at Ser473” value (sphere cultured, 5 μM BGJ398, 3 μM TAE648, 5 μM imatinib, 72 hours (FIG. 6)) is reported as “inhibits phosphorylated AKT at Ser473 residue”.
